Laboratory results as given in ChEMBL document CHEMBL5604061, “ASAP - WNV NS2B-NS3 protease fluorescence dose response” (2024).
Where “and” joins values, the source holds several entries; their conditions need not be identical. Equal values may be shown once.

The molecules below were run against T1, NS3 (West Nile virus, UniProt K4FQI5) (assay: Functional biochemical assay to identify treatments for viral infectious disease that targets West Nile NS2B-NS3 protease. Utilizing a direct enzyme activity measurement method, reading the fluorescence intensity is used to characterize the relative potency of inhibitors as IC50.).
T1 sequence (K4FQI5 whole entry): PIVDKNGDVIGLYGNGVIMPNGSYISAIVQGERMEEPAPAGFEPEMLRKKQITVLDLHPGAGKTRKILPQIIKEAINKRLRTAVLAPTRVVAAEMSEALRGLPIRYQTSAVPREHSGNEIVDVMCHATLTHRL
Set-up: species or system NY-99

SMILES	IC50
Cn1ncc2c(C(=O)Nc3ccc4c(c3)CNC4)cc(Br)cc21	47.2 µM
O=C(Nc1ccc2c(c1)CNC2)c1cc(Cl)cc2[nH]ncc12	3.09 µM
N=C(N)NCCC[C@H](NC(=O)[C@H](Cc1ccc(CN)cc1)NC(=O)c1ccccc1)B(O)O	0.065 µM and 0.217 µM
O=C(Nc1ccc2c(c1)CNC2)c1cc(Cl)cc2[nH]c(-c3ncnn3C3CC3)nc12	87.2 µM
O=C(Nc1ccc2c(c1)CNC2)c1cc(F)cc2[nH]c(-c3ccc(F)cc3)nc12	5.37 µM
NCc1cccc(NC(=O)[C@H](NC(=O)OCc2ccccc2)c2ccc(Br)c(Cl)c2)c1	6.57 µM
N=C(N)Nc1ccc(OC(=O)Nc2ccccc2)cc1	> 100 µM
O=C(NCC(F)F)[C@H](Nc1ccc2c(c1)CNC2)c1cc(Cl)cc2ccoc12	0.185 µM
O=C(Nc1ccc2c(c1)CNC2)c1cc(Cl)cc(N2CCCC2)c1	42.8 µM
CCc1nc2c(C(=O)Nc3ccc4c(c3)CNC4)cc(Br)cc2[nH]1	55.9 µM
O=C(Nc1ccc2c(c1)CNC2)c1cc(Cl)cc(C2CC2)c1	25.5 µM
O=C(NCC(F)F)[C@H](Nc1ccc2c(c1)CNC2)c1cccc(Cl)c1	0.477 µM
O=C(Nc1ccc2c(c1)CNC2)c1cc(F)cc2[nH]cnc12	13.5 µM
N#Cc1c[nH]c2ccc(C(=O)Nc3ccc4c(c3)CNC4)cc12	9.06 µM
Cc1c(C(=O)Nc2cc(CCCN)ccn2)cc(C2CC2)n1C	58.6 µM
CCCNC(=O)[C@H](Nc1ccc2c(c1)CNC2)c1cc(Cl)cc2[nH]ncc12	0.356 µM
N#CCCNC(=O)[C@H](Nc1ccc2c(c1)CNC2)c1cc(Cl)cc(C2CC2)c1	0.43 µM
O=C(NS(=O)(=O)C1CC1)c1cc(Cl)ccc1NS(=O)(=O)c1ccc(Oc2ccccc2Cl)cc1	75.6 µM

SMILES	IC50
Cc1cccc(-c2nc3c(C(=O)Nc4ccc5c(c4)CNC5)cc(Cl)cc3[nH]2)c1O	17.4 µM
O=C(O)CCCc1cc(NC(=O)c2cc(F)cc3[nH]ncc23)cc2c1CNC2	1.51 µM
O=C(Nc1ccc2c(c1)CNC2)c1ccc2[nH]cc(C3CCNCC3)c2c1	11.5 µM
O=C(Nc1ccc2c(c1)CNC2)c1cc(F)cc(/C=C/c2ccccc2)c1	2.91 µM
Cc1[nH]c2ccccc2c1CN1CCC(c2nc3ccccc3s2)CC1	> 99.5 µM
O=C(Nc1cc2c(cc1Br)CNC2)c1cc(Cl)cc2[nH]ncc12	2.73 µM
COCn1ncc2c(C(=O)Nc3ccc4c(c3)CNC4)cc(Cl)cc21	3.73 µM
O=C(Nc1ccc2c(c1)CN[C@H]2CCO)c1cc(F)cc2[nH]ncc12	1.66 µM
Clc1cc(CNc2ccc3c(c2)CNC3)c2cn[nH]c2c1	46.1 µM
NCc1cccc(NC(=O)[C@H]2[C@H]3CCCCC[C@H]3[C@H]2NC(=O)OCc2ccccc2)c1	47.1 µM
O=C(Nc1ccc2c(c1)CNCCC2)c1cc(Cl)cc2[nH]ncc12	3.25 µM
O=C(Nc1ccc2c(c1)CNC2)c1cc(F)cc2[nH]c(-c3ccccc3)nc12	16 µM
N=C(N)NCc1ccc(NC(=O)Oc2ccccc2)cc1	> 100 µM
CC(C)CNC(=O)c1cc(Cl)ccc1NS(=O)(=O)c1ccc(Oc2ccccc2Cl)cc1	> 99.5 µM
O=C(O)c1cc2c(cc1NS(=O)(=O)c1ccc(Oc3ccccc3Cl)cc1)CCC2	16.4 µM
O=C(Nc1ccc2c(c1)CNC2)c1cc(Cl)cc2c1cnn2C1CCC1	1.7 µM
CO[C@H]1C[C@H](n2ncc3c(C(=O)Nc4ccc5c(c4)CNC5)cc(Cl)cc32)C1	2.55 µM
